Test results from US5300672A (priority 1992, dated 1994).
Where two headings read alike, the source gives them in different places.

Legend:
[1] = tested on: Puccinia recondita (f. sp. tritici Races PKB and PLD); experiment: whole plant or invertebrate; format: in vivo; settings: for pest or weed control at 200 ppm / pest or weed control at 100 ppm: Puccinia recondita, 240 h, read-out: % Control WLR
[2] = tested on: Erysiphe graminis (f. sp. tritici); experiment: whole plant or invertebrate; format: in vivo
[3] = tested on: Pellicularia filamentosa (f. sp. sasiki); experiment: whole plant or invertebrate; format: in vivo; settings: for pest or weed control at 200 ppm / pest or weed control at 100 ppm: 120 h, read-out: % Control RSB
Phytophthora infestans = experiment: whole plant or invertebrate; format: in vivo; settings: for pest or weed control at 200 ppm / pest or weed control at 6 ppm / pest or weed control at 100 ppm: Phytophthora infestans, in Solanum lycopersicum, 96 h; for pest or weed control at 200 ppm: read-out: % Control TLB, application rate 200 ppm
Pseudomonas fluorescens = experiment: Alternate Minimum Inhibitory Concentrations Test (Table 4), Ps.fl; format: cell-based; settings: Table 4 alternate test, 250 ppm to 0.8 ppm in TSB, 72 hours, 30° C.; for MIC: Pseudomonas fluorescens, read-out: MIC Ps.fl
Description: The compounds of Examples 1-8, 12-26, 28-33, 36-37, 39-42, 44-109, 111-114, and 116-120 were subjected also to the following alternate biocidal activity test procedures with the results as indicated in Table 4.
The MIC test measures the viability of Pseudomonas fluorescens inoculum in TSB when exposed for 72 hours to varying concentrations of test compound.
A 125 μl aliquot of 10,000 ppm test compound in acetone was added to 4.88 ml of TSB to provide a 250 ppm solution. From this solution, 100 μL was transferred to the first row of two microtiter plate columns. Both replicates and five additional compounds were all serially diluted 1:1 to a final concentration of 0.8 ppm in TSB.
Inoculation was accomplished by diluting a 24 hr Ps fl culture, four mls per 36 mls of phosphate buffer solution. A Dynatech autoinoculator was used to transfer 1.5 μl of this cell suspension to the microtiter plates. The plates were incubated at 30° C. for 3 days before the lowest concentration at which no growth occurs was recorded in the database.

Piricularia oryzae = experiment: whole plant or invertebrate; format: in vivo; settings: for pest or weed control at 200 ppm / pest or weed control at 25 ppm / pest or weed control at 100 ppm: Pyricularia oryzae; for pest or weed control at 200 ppm: read-out: % Control RB, application rate 200 ppm; for pest or weed control at 100 ppm: read-out: % Control RB, application rate 100 ppm
[4] = Blumeria graminis, read-out: % Control WPM
[5] = read-out: % Control RB, application rate 25 ppm
[6] = read-out: % Control TLB, application rate 100 ppm

| Compound | MIC (Pseudomonas fluorescens) [µg/mL] | pest or weed control at 100 ppm [1] [%] | pest or weed control at 100 ppm [2, 4] [%] | pest or weed control at 100 ppm [3] [%] | pest or weed control at 100 ppm (Phytophthora infestans; read-out: % Control TLB) [%] | pest or weed control at 100 ppm (Piricularia oryzae) [%] | other results |
| --- | --- | --- | --- | --- | --- | --- | --- |
| C=CC(=O)S/C=C\C(=O)NCCCCCCCC [Compound 71, N-octyl-cis-3-(propenoylthio)acrylamide] | > 250 |  |  |  |  |  | pest or weed control at 200 ppm [1]: 0%; pest or weed control at 12 ppm [2, 4]: 50%; pest or weed control at 200 ppm [3]: 0%; pest or weed control at 200 ppm (Phytophthora infestans): 100%; pest or weed control at 200 ppm (Piricularia oryzae): 0% |
| N-octyl-cis-3-[(3-cyanobenzoyl)thio]acrylamide [Compound 67] |  |  |  |  |  |  | % Control WLR ([1]; in vivo): 0 % Control; % Control WPM ([2]; in vivo): 0 % Control; % Control RSB ([3]; in vivo): 0 % Control; % Control TLB (Phytophthora infestans; application rate 200 ppm): 95 % Control; MIC Ps.fl (Pseudomonas fluorescens): > 250 Ppm; % Control RB (Piricularia oryzae; in vivo): 0 % Control |
| CCCCCCCCNC(=O)/C=C\SC(=O)C(Cl)Cl [Compound 37, N-octyl-cis-3-(dichloroacetylthio)acrylamide] | > 250 | 0 | 0 | 0 |  |  | pest or weed control at 6 ppm (Phytophthora infestans; read-out: % Control TLB): 90%; pest or weed control at 25 ppm (Piricularia oryzae; [5]): 80% |
| CCCCCCCCNC(=O)/C=C\SC(=O)CCl [Compound 31, N-octyl-cis-3-(chloroacetylthio)acrylamide] | > 250 | 0 | 0 | 0 | 80 | 0 |  |
| CCCCCCCCNC(=O)/C=C\SC(=O)c1cc2ccccc2s1 [Compound 19, N-octyl-cis-3-[(2-benzo(6)thiophene)carbonylthio]acrylamide] | > 250 | 0 | 0 | 0 | 90 | 0 |  |
| CCCCCCCCNC(=O)/C=C\SC(=O)c1cccc(Br)c1 [Compound 36, N-octyl-cis-3-[(3-bromobenzoyl)thio]acrylamide] | > 250 | 0 | 0 | 0 |  |  | pest or weed control at 100 ppm (Phytophthora infestans; [6]): 0%; pest or weed control at 25 ppm (Piricularia oryzae; read-out: % Control RB): 90% |
| CCCCCCCCNC(=O)/C=C\SC(=O)c1ccccc1 [Compound 1, N-octyl-cis-3-(benzoylthio)acrylamide] | > 250 | 0 | 0 | 0 |  | 0 | pest or weed control at 100 ppm (Phytophthora infestans; [6]): 100% |
| CCCCCCCCNC(=O)/C=C\SCC(=O)OCC [Compound 34, N-octyl-cis-3-(ethoxycarbonylmethanethio)acrylamide] |  | 0 | 0 | 90 | 80 | 0 |  |
| CCCCCCCCNC(=O)/C=C\SC(C)C(=O)OC (stereo not drawn) [Compound 38] |  | 0 | 0 | 0 |  |  | pest or weed control at 6 ppm (Phytophthora infestans; read-out: % Control TLB): 80%; pest or weed control at 25 ppm (Piricularia oryzae; [5]): 80% |
| CCCCCCCCNC(=O)/C=C\SC(=O)c1c(Cl)cccc1Cl [Compound 21, N-octyl-cis-3-[(2,6-dichlorobenzoyl)thio]acrylamide] | > 250 | 0 | 0 | 0 | 80 | 0 |  |
| CCCCCCCCNC(=O)/C=C\SC(=O)c1cc(Cl)cc(Cl)c1 [Compound 54, N-octyl-cis-3-[(3,5-dichlorobenzoyl)thio]acrylamide] | > 250 | 0 | 0 | 0 | 85 |  |  |
| CCCCCCCCNC(=O)/C=C\SC(=O)CCOc1ccccc1 [Compound 79, N-octyl-cis-3-[(3-phenoxypropanoyl)thio]acrylamide] | > 250 |  |  |  |  |  | pest or weed control at 200 ppm [1]: 0%; pest or weed control at 200 ppm [2, 4]: 0%; pest or weed control at 200 ppm [3]: 0%; pest or weed control at 200 ppm (Phytophthora infestans): 100%; pest or weed control at 200 ppm (Piricularia oryzae): 0% |
| CCCCCCCCNC(=O)/C=C\SC(=O)c1ccccc1CCl [Compound 35, N-octyl-cis-3-[(2-(chloromethyl)benzoyl)thio]acrylamide] |  | 0 | 85 | 0 |  | 80 | pest or weed control at 100 ppm (Phytophthora infestans; [6]): 0% |
| C=CCC(=O)S/C=C\C(=O)NCCCCCCCC [Compound 63, N-octyl-cis-3-[(3-butenoyl)thio]acrylamide] | > 250 |  |  |  |  |  | pest or weed control at 200 ppm [1]: 0%; pest or weed control at 200 ppm [2, 4]: 0%; pest or weed control at 200 ppm [3]: 0%; pest or weed control at 200 ppm (Phytophthora infestans): 100%; pest or weed control at 200 ppm (Piricularia oryzae): 0% |
| CCCCCCCCNC(=O)/C=C\SC(=O)N1CCCC1 [Compound 32, N-octyl-cis-3-[(1-pyrrolidine)carbonylthio]acrylamide] | > 250 | 0 | 0 | 0 | 80 | 0 |  |
| CCCCCCCCNC(=O)/C=C\SC(=O)c1c(F)cc(F)cc1F [Compound 28, N-octyl-cis-3-[(2,4,6-trifluorobenzoyl)thio]acrylamide] | > 250 | 0 | 0 | 0 |  | 90 | pest or weed control at 100 ppm (Phytophthora infestans; [6]): 0% |
| CCCCCCCCNC(=O)/C=C\SC(=O)c1ccsc1 [Compound 65, N-octyl-cis-3-[(3-thiophene)carbonylthio]acrylamide] | > 250 |  |  |  |  |  | pest or weed control at 200 ppm [1]: 0%; pest or weed control at 200 ppm [2, 4]: 0%; pest or weed control at 200 ppm [3]: 0%; pest or weed control at 200 ppm (Phytophthora infestans): 95%; pest or weed control at 200 ppm (Piricularia oryzae): 0% |
| CCCCCCCCNC(=O)/C=C\SC(=O)c1cccc(OC)c1 [Compound 8, N-octyl-cis-3-[(3-methoxybenzoyl)thio]acrylamide] | > 250 | 0 | 0 | 0 | 80 | 80 |  |
| CCCCCCCCNC(=O)/C=C\SC/C=C/c1ccccc1 [Compound 13, N-octyl-cis-3-[(trans-3-phenylprop-2-ene)thio]acrylamide] | > 250 | 0 | 0 | 0 | 80 | 0 |  |
| CCCCCCCCNC(=O)/C=C\SC(=O)C(CC)CCCC (stereo not drawn) [Compound 27, N-octyl-cis-3-[(2-ethylhexanoyl)thio]acrylamide] |  | 0 | 0 | 0 | 90 | 0 |  |
| CCCCCCCCNC(=O)/C=C\SC(=O)CCCCCCCCCCC#N [Compound 58, N-octyl-cis-3-[(11-cyanoundecanoyl)thio]acrylamide] | > 250 |  |  |  |  |  | pest or weed control at 200 ppm [1]: 0%; pest or weed control at 200 ppm [2, 4]: 0%; pest or weed control at 200 ppm [3]: 50%; pest or weed control at 200 ppm (Phytophthora infestans): 0% |
